Where two headings read alike, the source gives them in different places. One block for each substance: values may come before it. Where no end group is shown, it is not given here.
How the values were obtained:
[1] = test system: grass pollen allergic donor derived TCL-03 lines; assay: Extended cross-reactivity study, proliferation on TCL03 DK1+DK2 (Study XR2), scoring; format: cell-based, human; conditions: study XR2; for Cross-reactivity score, Cyn d: homologue from Cyn d; for Cross-reactivity score, Cyn d / Cross-reactivity score, Dac g / Cross-reactivity score, Fes p / Cross-reactivity score, Lol p / Cross-reactivity score, Pas n / Cross-reactivity score, Pha a / Cross-reactivity score, Poa p / Cross-reactivity score, Sor h: score 0 to 7; for Cross-reactivity score, Dac g: homologue from Dac g; for Cross-reactivity score, Fes p: homologue from Fes p; for Cross-reactivity score, Lol p: homologue from Lol p; for Cross-reactivity score, Pas n: homologue from Pas n; for Cross-reactivity score, Pha a: homologue from Pha a; for Cross-reactivity score, Poa p: homologue from Poa p; for Cross-reactivity score, Sor h: homologue from Sor h; for Cross-reactivity sum: scores of all species added; for Cross-reactivity/species: sum divided by the number of species measured
[2] = Extended solubility and short term stability study (visual, U-HPLC recovery, DLS, 90LS, UV-VIS, sum of scores); conditions: for solubility: pH 4.5
Protocol: For that purpose, the peptides were provided as acetate salts (produced by Innovagen® at a >10 mg scale of manufacturing). To take into account batch-to-batch variations, some peptides were tested from other batches of the manufacturer Innovagen®, as well as from another manufacturer (Almac) and from in-house production. Solubility experiments were performed on peptide in solution in concentrations ranging from 0.5 mg/mL to 3 mg/mL (dry matter)—with the following solvents: • Water • Acetate buffer, pH 4.5 (25 mM sodium acetate containing 250 mM D-Mannitol) • Phosphate buffer, pH 7.0 (25 mM sodium phosphate containing 250 mM D-Mannitol) • Glycine buffer, pH 8.5 (25 mM glycine containing 250 mM D-Mannitol)
The solubility of the peptides was initially investigated by visual inspection and U-HPLC recovery. Visual inspection included assessment of turbidity and presence of particles/aggregates of each peptide solution before and after centrifugation as well as visual inspection of pelleted material. The visual inspection were reported as “clear solution”, “very small precipitation only visible with a magnifier”, “precipitation visible/turbid solution” or “more precipitation/turbid solution”. Filtration of peptide solutions were conducted using syringe based filters containing a polyethersulfone (PES) membrane chemistry and a pore size of 0.2 μm. The amount of the peptide in the supernatant of a filtered sample was determined using U-HPLC with reverse phase chromatography and recovery were determined as described in Example 5.
Peptide solutions were investigated at a time point of 1 hour after production, but were also repeated at later time point (e.g. 24. 48 or 96 hours) to investigate the stability of the peptides.
Peptide solutions were investigated to determine the presence of turbidity/particles/aggregates by use of optical density (OD) and change in UV-VIS absorbance at a wavelength of 320 nm, of the filtrate. […] In addition or as an alternative, the amount of the peptide in the supernatant of a filtered sample was determined using U-HPLC as described above, with the exception that the recovery was determined by dividing the peak area of the filtered sample in relation to the peak area in the original solution prior to filtration. See also Example 5 for further details regarding UV-VIS, and recovery measured by U-HPLC.
The peptides were scored in relation to the outcome of the above mentioned tests: For each peptide in a given buffer and at a given concentration, a sum of test scores was calculated and the sum used to rank the peptides according to solubility: • 1. […] DLS peak 1 number 3 nm gave a score of 1, 3-10 nm gave a score of 2, 10-100 nm gave a score of 3, >100 nm gave a score of 4. • 5. 90LS at 400 nm: Intensity <450 gave a score of 1, <800 gave a score of 2, >800 gave a score of 3. • 6. UV-VIS change in absorbance at 320 nm within 24 hours: 0.01 gave a score of 1, ≤0.05 gave a score of 2, 0.0.2 gave a score of 3 and >0.2 gave a score of 4.

Substance: AYESYKFIPALEAAVKQAYA-OH [peptide 285]
Cross-reactivity score, Dac g [1]: 6
Cross-reactivity score, Fes p [1]: 6
Cross-reactivity score, Lol p [1]: 6
Cross-reactivity score, Pha a [1]: 6
Cross-reactivity score, Poa p [1]: 7
Cross-reactivity sum [1]: 31
Cross-reactivity/species [1]: 6.2
solubility by ranking scheme based on a sum of scores ([2]; 3 mg/ml, buffers tested): good solubility
solubility in aqueous solutions and short-term stability ([2]; pH in the range of 4.5 to 8.5): sufficiently soluble

Substance: STGGAYESYKFIPALEAAVK-OH [compound 71]
Cross-reactivity score, Dac g [1]: 5
Cross-reactivity score, Fes p [1]: 5
Cross-reactivity score, Lol p [1]: 5
Cross-reactivity score, Pha a [1]: 5
Cross-reactivity score, Poa p [1]: 4
Cross-reactivity sum [1]: 24
Cross-reactivity/species [1]: 4.8
solubility in all the test samples (concentrations and pH tested), all solubility tests [2]: good solubility
solubility in aqueous solutions and short-term stability [2]: sufficiently soluble
solubility [2]: acceptable solubility

Substance: DKYRTFVATFGAASNKAFAE-OH [peptide 231]
solubility in aqueous solutions and short-term stability [2]: sufficiently soluble
solubility [2]: acceptable solubility

Second part, led by results:

solubility in all the test samples (concentrations and pH tested), all solubility tests [2]: good solubility
solubility in aqueous solutions and short-term stability [2]: sufficiently soluble
solubility [2]: acceptable solubility
Substance: TDDNEEPIAPYHFDLSGHAF-OH [peptide 204]
Cross-reactivity score, Cyn d [1]: 1.5
Cross-reactivity score, Dac g [1]: 7
Cross-reactivity score, Fes p [1]: 7
Cross-reactivity score, Lol p [1]: 7
Cross-reactivity score, Pas n [1]: 1
Cross-reactivity score, Pha a [1]: 7
Cross-reactivity score, Poa p [1]: 1.5
Cross-reactivity score, Sor h [1]: 2
Cross-reactivity sum [1]: 34
Cross-reactivity/species [1]: 4.25

solubility in aqueous solutions and short-term stability [2]: sufficiently soluble
solubility [2]: acceptable solubility
Substance: WGAIWRIDTPDKLTGPFTVR-OH [peptide 211]
Cross-reactivity score, Cyn d [1]: 0.5
Cross-reactivity score, Dac g [1]: 5
Cross-reactivity score, Fes p [1]: 4
Cross-reactivity score, Lol p [1]: 4
Cross-reactivity score, Pas n [1]: 1
Cross-reactivity score, Pha a [1]: 7
Cross-reactivity score, Poa p [1]: 3
Cross-reactivity score, Sor h [1]: 0.5
Cross-reactivity sum [1]: 25
Cross-reactivity/species [1]: 3.12
